For 99 compounds, IC50 results are on record in PubChem BioAssay AID2401 (Southern Research Specialized Biocontainment Screening …, 2010).

Values joined by “and” are separate entries in the source; they are usually repeats but may differ in a detail not shown here. Equal values may be shown once.

Usually IC50 stands for the concentration that gives 50% inhibition.

This test deals with S. Typhimurium GFP reporter counter-screen, fluorescence, 4 h. Put plainly: S. Typhimurium nonspecific reporter signal inhibition – Salmonella Typhimurium, GFP fluorescence, counter-screen for PhoP regulon inhibitor project, dose response (AID 2401;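 note: S. typhimurium with Mg-insensitive nmpC-GFP reporter grown at 10 µM Mg2+; drop in reporter fluorescence reflects general culture growth inhibition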). (The purpose of a counterscreen is to sort out artefacts and off-target activity.)
As for `CCCCCCCCCCOC(=O)Cn1c(COc2ccc(OC)cc2)[n+](C)c2ccccc21`, the IC50 is 21.2 µM and 22.3 µM.
For the compound `OCCNCc1c(OCc2ccc(Cl)cc2)ccc2ccccc12`, the IC50 was 90 µM.
As to `O=C(Cn1nc(CNc2ccc(Cl)cc2)[n+]2c1CCCCC2)c1ccc(Br)cc1`, the IC50 is 72.1 µM.
To `Oc1cccc(/C=N/NC(=S)Nc2cccnc2)c1O` belongs 28.5 µM; to `COc1ccc(C(C[N+](=O)[O-])n2nc(C)cc2C)cc1` (centres undefined), 13.4 µM.
As for `COc1ccc(C(C[N+](=O)[O-])c2c(-c3ccccc3)cc3ccccn23)cc1` (centres undefined), the figure is 29.9 µM; as for `CCN1/C(=C/C(C)=C/c2sc3ccccc3[n+]2CC)Sc2ccccc21`, 12.9 µM; as for `CC1COc2c(N3CCN(C)CC3)c(F)cc3c(=O)c(C(=O)O)cn1c23` (centres undefined), 0.8 µM.
As for `Oc1cccc(/C=N/Nc2ccc(Cl)nn2)c1O`, the figure is 18.3 µM; as for `COc1c(N2CCN[C@H](C)C2)c(F)cc2c(=O)c(C(=O)O)cn(C3CC3)c12`, 0.78 µM; as for `FC(F)(F)c1ccc2c(c1)N(CCCN1CCN(CCCl)CC1)c1ccccc1S2`, 110 µM.
With `CCCCCCCSc1cc(OC)c(CCN(C)C)cc1OC`, the IC50 was 57.2 µM.
As to `NC1=NC[C@H](Cc2ccc(O)cc2)N1CCCCC1CCCCC1`, the IC50 was 51 µM.
To `CN(C)c1ccc(O)c2c1CC1CC3[C@@H](N(C)C)C(=O)C(C(N)=O)=C(O)[C@]3(O)C(=O)C1=C2O` (some centres undefined) belongs 4.76 µM.
As for `COc1ccc(/C=N/Nc2cc(C)nc3ccccc23)cc1`, the figure is 51.7 µM; as for `CCC(C)(C)c1ccc(OCCCC[n+]2ccc(C)cc2)c(C(C)(C)CC)c1`, 48.4 µM.
As for `Cc1cc(C)c2ccc(N)nc2c1O`, the figure is 35.7 µM; as for `COc1ccc(Nc2cc(C)nc(NCc3ccccc3)n2)cc1`, 111 µM.
For the compound `CN(C)S(=O)(=O)c1cccc(NC(=S)N/N=C/c2cc(Br)ccc2O)c1`, the IC50 was 32.4 µM.
To `Cc1ccccc1Nc1cc(C)c2c(O)cccc2n1` belongs 41.2 µM; to `Cc1scc(C(=O)N/N=C/c2ccc([N+](=O)[O-])o2)c1C`, 114 µM.
Regarding `CC(=O)N1CCN(c2cc3c(cc2F)c(=O)c(C(=O)O)cn3C2CC2)CC1`, the IC50 is 36.5 µM.
To `COc1cc(/C=C/[N+](=O)[O-])ccc1O` belongs 32.6 µM.
On to `CCCCCCCCCCCCCCCC[n+]1ccc(/C=N/O)cc1`, for which the IC50 is 28.7 µM.
To `CCc1ccc(-c2nn(-c3ccccc3)cc2CSC(=N)N)cc1` belongs 53.1 µM; to `Oc1cc(Cl)ccc1Oc1ccc(Cl)cc1Cl`, 0.49 µM; to `CNC[C@H](CC1CCCCC1)NC[C@H](Cc1ccccc1)NCCC12CC3CC(CC(C3)C1)C2`, 16.1 µM.
To `O=C(N/N=C/c1ccc([N+](=O)[O-])s1)C(O)c1ccccc1` (centres undefined) belongs 49 µM.
Regarding `C[C@H]1COc2c(N3CCN(C)CC3)c(F)cc3c(=O)c(C(=O)O)cn1c23`, the IC50 was 0.37 µM.
As for `CCOC(=O)Cc1csc(NC(=O)NC2(C(F)(F)F)Oc3cc(Cl)c(Cl)cc3O2)n1`, the IC50 is 74.6 µM.
For the compound `Cc1ccc(Nc2cc(C)c3c(O)cccc3n2)cc1C`, the IC50 was 75.3 µM.
As for `CCn1cc(C(=O)O)c(=O)c2cc(F)c(N3CCNCC3)cc21`, the IC50 was 0.88 µM.
To `Nc1ncn([C@@H]2O[C@H](CO)[C@@H](O)[C@H]2O)c(=O)n1` belongs 33.6 µM; to `CSc1ccc2c(c1)C(N1CCN(C)CC1)Cc1ccccc1S2` (centres undefined), 87.2 µM.
To `c1ccc(C2CNCc3c2ccc2ccccc32)cc1` (centres undefined) belongs 138 µM; to `CO[C@@]1(NC(=O)C2SC(=C(C(N)=O)C(=O)O)S2)C(=O)N2C(C(=O)O)=C(CSc3nnnn3C)CS[C@@H]21` (some centres undefined), 26.9 µM; to `O=C(CSc1ccccn1)N/N=C/c1cc([N+](=O)[O-])ccc1O`, 34.9 µM.
To `O=C(N/N=C/c1ccc(O)cc1O)/C(=C/c1ccccc1)CCO` belongs 124 µM; to `Cc1ccc(/C=C/C(=O)c2ccccc(=O)c2O)cc1C`, 25 µM.
With `OCc1ccc(O)c2ncccc12`, the IC50 was 123 µM.
As for `COc1ccc(C(C[N+](=O)[O-])C2(c3ccc(OC)c(OC)c3)C(=O)c3ccccc3C2=O)cc1` (centres undefined), the figure is 23.2 µM; as for `CCCCCCCNC(=O)C1(CC2CC(c3cccc(Br)c3)=NO2)CCNCC1` (centres undefined), 37.7 µM.
To `O=C(Oc1c(CN2CCOCC2)cc(Cl)c2cccnc12)c1ccc(F)cc1` belongs 136 µM.
To `Cc1onc(-c2ccccc2)c1C(=O)NC(=S)NNC(=O)c1ccc(O)cc1O` belongs 119 µM; to `c1ccc2c(c1)Sc1ccccc1N2CC1CN2CCC1CC2` (centres undefined), 108 µM; to `CN(C)[C@@H]1C(=O)C(C(N)=O)=C(O)[C@@]2(O)C(=O)C3=C(O)c4c(O)cccc4[C@@](C)(O)C3[C@H](O)C12` (some centres undefined), 0.79 µM.
For `CC(C(=O)NC1CCS(=O)(=O)C1)N1C(=O)/C(=C/c2ccc(Cl)cc2)SC1=S` (centres undefined), the IC50 was 11.6 µM.
Take `CC(C)(C)CC(C)(C)c1ccc(OCCOCC[N+](C)(C)Cc2ccccc2)cc1`: the IC50 was 32.8 µM.
For the compound `O=C(C[n+]1cc(-c2ccc(Cl)cc2)n2c1CCC2)Nc1nc(-c2ccc(F)cc2)cs1`, the IC50 was 38.3 µM.
Consider `COC1C(OC(=O)c2ccc(C)[nH]2)C(O)C(Oc2ccc3c(O)c(NC(=O)c4ccc(O)c(CC=C(C)C)c4)c(=O)oc3c2Cl)OC1(C)C` (centres undefined), for which the IC50 was 16.5 µM.
With `O=C1c2ccccc2NC(c2ccc(-c3ccc(Br)cc3)o2)N1O` (centres undefined), the half-inhibitory concentration (IC50) was 38.7 µM.
To `CCn1cc(C(=O)O)c(=O)c2cc(F)c(N3CCN(C(=S)NC(=O)c4c(OC)cccc4OC)CC3)cc21` belongs 54.2 µM.
As to `Fc1ccc(CCNCc2ccc(Cl)c(Cl)c2)cc1`, the IC50 was 80.6 µM.
To `O=[N+]([O-])c1cc(/C=N/Nc2nc3ccccc3[nH]2)c(O)cc1O` belongs 18.2 µM; to `COC(=O)c1c(NC(=O)c2ccc([N+](=O)[O-])o2)sc2c1CCN(C(C)C)C2`, 69.3 µM.
As for `CCn1cc(C(=O)NCCCN(C)C)c(=O)c2cc(F)c(N3CCN(C)CC3)cc21`, the figure is 86.9 µM; as for `N=c1n(CC(=O)c2ccc(Br)s2)c2ccccc2n1Cc1ccccc1`, 40.4 µM; as for `Cc1cc(C(=O)N/N=C/c2ccc(O)c(O)c2O)c(C)n1-c1ccccc1`, 22.8 µM.
To `C[CH2][Hg][S]c1ccccc1C(=O)O` belongs 54.9 µM.
Regarding `Nc1ccc2c(c1)C(=O)C(=O)c1ccccc1-2`, the IC50 was 11 µM.
To `COc1cccc(C2Nc3ccccc3C(=O)N2O)c1O` (centres undefined) belongs 138 µM.
For `Clc1ccc(CN2CCC(c3nc4ccc(Cl)cc4[nH]3)CC2)cc1`, the IC50 is 22.4 µM.
As for `Cc1[nH]c2ccccc2c1C(=O)COC(=O)c1ccc([N+](=O)[O-])s1`, the figure is 130 µM; as for `Nc1nc2ccccc2n1Cc1ccc(Cl)c(Cl)c1`, 76.5 µM.
To `CN(Cc1ccccc1)CC(O)COc1ccc(CNCc2ccc(Cl)s2)cc1` (centres undefined) belongs 91.9 µM; to `O=[N+]([O-])c1cc(O)c2ncccc2c1`, 16.8 µM.
In the case of `O=[N+]([O-])c1ccc(-c2ccn[nH]2)o1`, the IC50 was 39.8 µM.
To `CCn1c(N)[n+](CC(=O)Nc2ccc(SC(F)F)cc2)c2ccccc21` belongs 132 µM; to `Cc1cc2nc3ccc(=[N+](C)C)cc-3sc2cc1N`, 36.5 µM; to `Cc1cc(/C=N/n2c(COc3ccccc3C)nc3ccccc3c2=O)c(O)c([N+](=O)[O-])c1`, 70.4 µM.
As for `CC(C)C(=O)NC(c1cccc([N+](=O)[O-])c1)c1ccc2cccnc2c1O` (centres undefined), the figure is 51.7 µM; as for `O=C1OC(/C(=C\Nc2ccc(F)cc2F)[N+](=O)[O-])c2ccccc21` (centres undefined), 61.1 µM.
To `CCCCOc1ccc(CSC(=N)N)cc1[N+](=O)[O-]` belongs 115 µM.
On to `Oc1c(C(Nc2nc3ccccc3s2)c2ccco2)ccc2cccnc12` (centres undefined), for which the IC50 is 104 µM.
As for `CC1CCC(C(C)C)C(OC(=O)Cn2c(-c3ccc(Cl)cc3)[n+](C)c3ccccc32)C1` (centres undefined), the figure is 82.9 µM; as for `Cc1cc(C(C)(C)CC(C)(C)C)ccc1OCCOCC[N+](C)(C)Cc1ccccc1`, 26.9 µM; as for `CCn1cc(C(=O)O)c(=O)c2cc(F)c(N3CCN(C(=S)Nc4ccccc4OC)CC3)cc21`, 38.8 µM.
For the compound `Nc1nc(N)c(Cc2ccc(Cl)cc2Cl)c(N)n1`, the IC50 was 100 µM.
With `CN(C)CCCNc1cc(C(C)(C)C)nc2c(-c3ccccc3)cnn12`, the IC50 is 53.6 µM.
To `CCOc1ccc(Nc2c3ccccc3nc3ccccc23)cc1` belongs 77.3 µM; to `Nc1nonc1C(=O)N/N=C/c1cc(Br)ccc1O`, 9.03 µM.
To `Oc1ccc(/C=N/Nc2ncc(Br)cn2)c(O)c1` belongs 71.1 µM.
As for `O=C(NC(=S)NNC(=O)c1ccccc1O)c1ccco1`, the figure is 41.5 µM; as for `CCN1/C(=C/C=C/C=C/c2sc3ccccc3[n+]2CC)Sc2ccccc21`, 17.8 µM.
For the compound `O=[N+]([O-])c1cc(CN2CCOCC2)c2cccnc2c1O`, the IC50 was 27.2 µM.
To `CCCCCCCCCCCCCCCC[N+](C)(C)C` belongs 30.5 µM.
As for `CCCCCCCCCCCCCCCC[N+](C)(C)CCN(Cc1ccc(OC)cc1)c1ncccn1`, the figure is 20.2 µM; as for `O=[N+]([O-])c1cc(Cl)c2cccnc2c1O`, 1.62 µM.
To `CC(C(=O)NC1C=CS(=O)(=O)C1)N1C(=O)/C(=C/c2ccc(Cl)cc2)SC1=S` (centres undefined) belongs 15.4 µM.
Consider `C=CCc1cccc(C2Nc3ccccc3C(=O)N2O)c1O` (centres undefined), for which the IC50 is 80.9 µM.
For `CCCCCCCCCCOC(=O)Cn1c(COc2ccc(Cl)cc2)[n+](C)c2ccccc21`, the half-inhibitory concentration (IC50) was 19.5 µM.
In the case of `O=C(O)CCN1C(=O)CC(N2C(=O)/C(=C/c3ccc(Cl)cc3)SC2=S)C1=O` (centres undefined), the IC50 is 20.6 µM.
In the case of `Oc1c(CN2CCN(c3ccc(F)cc3)CC2)cc(Cl)c2cccnc12`, the IC50 is 19.8 µM.
`C=CC#CC[N+]1(CC#Cc2ccccc2)CCOCC1`: the IC50 was 34.3 µM.
As for `CCOc1ccc(NC(=O)c2ccc(NC(=O)c3cn4c5c(c(N6CCN(C)CC6)c(F)cc5c3=O)OCC4C)cc2)cc1` (centres undefined), the figure is 6.51 µM.
For the compound `CCCC(=O)NC(c1ccc(N(C)C)cc1)c1ccc2cccnc2c1O` (centres undefined), the IC50 is 107 µM.
To `C[C@H]1O[C@@H](n2cc(F)c(=O)[nH]c2=O)[C@H](O)[C@@H]1O` belongs 38.6 µM.
Turning to `Fc1ccccc1CCNCc1ccccc1`, the IC50 was 36.2 µM.
Turning to `CCn1cc(C(=O)O)c(=O)c2cc3c(cc21)OCO3`, the half-maximal inhibitory concentration (IC50) was 80.6 µM.
